Earlier results, collected in publication PMC5974752, “Bax/Tubulin/Epithelial-Mesenchymal Pathways Determine the Efficacy of Silybin Analog HM015k in Colorectal Cancer Cell Growth and Metastasis” (Frontiers in Pharmacology, 2018).

How the values were obtained:
[1] = system: CRC lines HCT116 and HT29; design: method as in Agarwal et al., 2003; details: ref Agarwal et al., 2003, cited from earlier work
[2] = system: Wnt/β-catenin signaling in PC-3, DU-145, MDAMB-231 and T-47D cells; design: method as in Lu W. et al., 2012; details: 100–200 μM; ref Lu W. et al., 2012; cited from earlier work
PC3 and PC3MM2 cells [3] = system: PC3 and PC3MM2 cells; design: method as in Deep et al., 2011; details: 30 and 90 μM; ref Deep et al., 2011; cited from earlier work
[4] = system: xenograft model in mice using SW480 cells; design: method as in Kaur et al., 2010; details: i.p. 100 or 200 mg/kg; ref Kaur et al., 2010; cited from earlier work
EMT—driven resistance = system: EMT—driven resistance; design: method as in Cufí et al., 2013; details: 100 mg/kg; ref Cufí et al., 2013; cited from earlier work
ARCaP(M) cells = system: ARCaP(M) cells; design: method as in Wu et al., 2009; details: 100 and 200 μM; ref Wu et al., 2009; cited from earlier work
[5] = system: transgenic mice with prostate adenocarcinomas; design: method as in Singh et al., 2008; details: 0.5 and 1% (w/w); ref Singh et al., 2008; cited from earlier work
[6] = design: method as in Dixit et al., 2007; Zhu et al., 2013; Amawi et al., 2017b; details: ref Dixit et al., 2007; Zhu et al., 2013; Amawi et al., 2017b; cited from earlier work
PC3 and PC3MM2 cells [7] = system: PC3 and PC3MM2 cells; design: method as in Deep et al., 2011; details: 90 μM; ref Deep et al., 2011; cited from earlier work
[8] = system: SW480 cells with a mutant APC gene; design: method as in Kaur et al., 2010; details: 50–200 μM; ref Kaur et al., 2010; cited from earlier work

For COc1cc(C2Oc3cc([C@H]4Oc5cc(O)cc(O)c5C(=O)[C@@H]4O)ccc3OC2CO)ccc1O (some centres unmarked) [silybin], the “concentration that inhibits proliferation” value ([1]; HCT116 and HT29) is listed as 50 to 200 µM, the “cell cycle arrest and apoptosis” value [1] is listed as “induces both G1 and G2 cell cycle arrest and induces apoptosis” and the Wnt/β-catenin signaling [2] is listed as “significantly decreased”. For the same compound, the “migratory and invasive capacities” value (PC3 and PC3MM2 cells [3]) was “inhibits the migratory and invasive capacities”, the “effects in SW480 xenograft” value [4] was “produced similar effects” and the EMT-driven resistance (EMT—driven resistance) was “significantly decreased”. The invasiveness (ARCaP(M) cells) was “inhibits the invasiveness”, the “E-cadherin, vimentin and MMP-2 expression” value [5] was “significantly upregulate E-cadherin and decrease the expression of the EMT markers, vimentin and MMP-2” and the bioavailability [6] was “poor bioavailability”. For the same compound, the “E-cadherin and nuclear β-catenin levels” value (PC3 and PC3MM2 cells [7]) was “significant upregulation in E-cadherin and downregulation in nuclear β-catenin levels” and the “nuclear β-catenin, c-Myc expression and apoptosis” value [8] was “significantly inhibited the expression of nuclear β-catenin, c-Myc and induced apoptosis”.
